Source: US20260207636A1, “PRODRUGS OF DIMETHOXYPHENYL[…] SEROTONIN RECEPTORS” (priority 2022, published 2026)

Experiments:
[1] = Compound chemical stability in SGF without pepsin; assay type: physicochemical
Description: (§1) Compounds 1-6 were assessed for their stability in various environments, including phosphate buffered saline (PBS), simulated gastric fluid (SGF) with pepsin, SGF without pepsin, and mouse plasma, using standard stability assay protocols.

[2] = Compound chemical stability in PBS (pH 6.5); assay type: physicochemical
Description: as §1

[3] = Compound chemical stability in SGF with pepsin; assay type: physicochemical
Description: as §1

[4] = Compound mouse plasma stability; assay type: in vitro ADME
Description: as §1

SMILES | % Remaining ([1]; 0 minutes) [%] | % Remaining ([1]; 30 minutes) [%] | % Remaining ([1]; 60 minutes) [%] | % Remaining ([1]; 120 minutes) [%] | % Remaining ([1]; 240 minutes) [%] | % Remaining ([2]; 0 minutes) [%] | % Remaining ([2]; 30 minutes) [%] | % Remaining ([2]; 60 minutes) [%] | % Remaining ([2]; 120 minutes) [%] | % Remaining ([2]; 240 minutes) [%] | % Remaining ([3]; 0 minutes) [%] | % Remaining ([3]; 30 minutes) [%] | % Remaining ([3]; 60 minutes) [%] | % Remaining ([3]; 120 minutes) [%] | % Remaining ([3]; 240 minutes) [%] | % Remaining ([4]; 0 minutes) [%] | % Remaining ([4]; 30 minutes) [%] | % Remaining ([4]; 60 minutes) [%] | % Remaining ([4]; 120 minutes) [%] | % Remaining ([4]; 240 minutes) [%]
COc1ccc(OC)c(CCN(Cc2cc(C)cc(Cl)c2)Cc2oc(=O)oc2C)c1 [Compound 2, 4-(((3-Chloro-5-methylbenzyl)(2,5-dimethoxyphenethyl)amino)methyl)-5-methyl-1,3-dioxol-2-one] | 100 | 100 | 96 | 86 | 72 | 100 | 66 | 43 | 15 | 2 | 100 | 93 | 93 | 84 | 70 | 100 | 73 | 61 | 41 | 20
COc1ccc(OC)c(CCN(Cc2cc(C)cc(Cl)c2)C(=O)OC(C)OC(=O)C(C)(C)C)c1 (stereo not shown) [Compound 4, 1-(((3-Chloro-5-methylbenzyl)(2,5-dimethoxyphenethyl)carbamoyl)oxy)ethyl pivalate] | 100 | 90 | 89 | 96 | 88 | 100 | 102 | 101 | 102 | 116 | 100 | 93 | 96 | 94 | 105 | 100 | 2 | 1 | 00 | 00

Now from value to compound:

% Remaining ([1]; 0 minutes) [%] | % Remaining ([1]; 30 minutes) [%] | % Remaining ([1]; 60 minutes) [%] | % Remaining ([1]; 120 minutes) [%] | % Remaining ([1]; 240 minutes) [%] | % Remaining ([2]; 0 minutes) [%] | % Remaining ([2]; 30 minutes) [%] | % Remaining ([2]; 60 minutes) [%] | % Remaining ([2]; 120 minutes) [%] | % Remaining ([2]; 240 minutes) [%] | % Remaining ([3]; 0 minutes) [%] | % Remaining ([3]; 30 minutes) [%] | % Remaining ([3]; 60 minutes) [%] | % Remaining ([3]; 120 minutes) [%] | % Remaining ([3]; 240 minutes) [%] | % Remaining ([4]; 0 minutes) [%] | % Remaining ([4]; 30 minutes) [%] | % Remaining ([4]; 60 minutes) [%] | % Remaining ([4]; 120 minutes) [%] | % Remaining ([4]; 240 minutes) [%] | SMILES
100 | 98 | 99 | 95 | 96 | 100 | 91 | 94 | 93 | 93 | 100 | 95 | 97 | 96 | 94 | 100 | 85 | 82 | 89 | 86 | COc1ccc(OC)c(CCN(Cc2cc(C)cc(Cl)c2)C(=O)CN)c1 [Compound 6, 2-Amino-N-(3-chloro-5-methylbenzyl)-N-(2,5-dimethoxyphenethyl)acetamide]
100 | 100 | 88 | 94 | 101 | 100 | 96 | 99 | 101 | 94 | 100 | 97 | 92 | 90 | 80 | 100 | 88 | 86 | 91 | 87 | CCOC(=O)N(CCc1cc(OC)ccc1OC)Cc1cc(C)cc(Cl)c1 [Compound 5, Ethyl (3-chloro-5-methylbenzyl)(2,5-dimethoxyphenethyl)carbamate]
100 | 105 | 109 | 106 | 107 | 100 | 97 | 94 | 89 | 67 | 100 | 105 | 105 | 93 | 106 | 100 | 00 | 00 | 00 | 00 | COc1ccc(OC)c(CCN(Cc2cc(C)cc(Cl)c2)C(=O)OCc2oc(=O)oc2C)c1 [Compound 3, (5-Methyl-2-oxo-1,3-dioxol-4-yl)methyl (3-chloro-5-methylbenzyl)(2,5-dimethoxyphenethyl)carbamate]
